Test results: patent US20240277737A1, “METHOD FOR GENERATING DRY POWDER SUITABLE FOR INHALATION ADMINISTRATION OF ANTIMICROBIAL PHOSPHOLIPID COMPOSITIONS” (Celestial Therapeutics, Inc., priority 2021, published 2024)
Values after ≈ are worked out from the molar mass of the structure shown.

Legend:
[1] = particle size distribution by Sympatec laser particle sizer (RODOS/ASPIROS, 3 bar); type: physicochemical; settings: raw material, R5 lens
Method: The Particle Size Distribution analysis was performed at 3 bar dispersion pressure using a Sympatec laser Particle Sizer equipped with RODOS/ASPIROS dispersion unit and an R5 lens.
The particle size analysis of the spray dried powders was performed at 3 bar dispersion pressure using a Sympatec laser Particle Sizer equipped with RODOS/ASPIROS dispersion unit and an R3 lens (n=2) and is summarised in Table 13 and in FIG. 19-FIG. 21. The PSD of spray dried powders decreased with increasing atomisation pressure and reducing outlet temperature during the spray drying manufacture.
The PSD analysis performed on 174 #003A-01 & 174 #003B-01 following storage at −20° C. was repeat-ed.
The spray dried product 174 #005A-01 was vacuum dried for 24 hours at 25° C. with a maximum pressure ˜0.1 mbar. After the 24 hours, the PSD of this product was evaluated. Post vacuum drying, increased amounts of aggregated material were observed and as a result the Dv90 increased.
Based on the PSD results after the storage, an aliquot of the formulation 174 #005A-01, that was stored at −20° C. for 4 weeks, was taken out from the freezer, transferred in sealed container and equilibrated for 5 hours at ambient temperature (20 C-25 C, <30% RH) in a sealed vial.
The 174 #010A-01 post vacuum drying was separated in different aliquot and stored at 2-8° C. and at −20° C. The PSD and DSC of the spray dried powder was evaluated through time. The spray dried powder was removed from the storage condition an equilibrated at low RH for 5 hours (19° C. and 28% RH) before to perform any test. […]
The particle size distribution of the micronized sample was determined by laser particle size analysis using an R1 (0.1-35.0 μm range) & R3 lens (0.5-175.0 μm range) at 3 bar dispersal pressure at T-0 and after T=7 days after storage of the sample at −20° C. […] There was a slight discrepancy between the two lenses, with the trace of the material measured using the R1 lens appearing larger and very slightly bimodal which wasn't apparent in the trace measured using an R3 lens. […]

[2] = solubility screening for API spray drying (organic solvents); type: physicochemical
Method: The solubility of the surfactant was investigated to identify a suitable solvent system in which the surfactants can be solubilized to process the material by spray drying.
The class III solvents were preferred to the class II solvents because the […] and of lower risk to human health. The solubility of the POPG using class III solvent was lower than 0.5 mg/mL. For this reason, Class II solvents were investigated. The highest solubility was obtained with a mixture DCM/Methanol 5:1 v/v and it will be used as a vehicle for the spray drying process.

[3] = test system: Respiratory Syncytial Virus (RSV); settings: bronchial epithelial cells; cited from earlier work
[4] = test system: Toll-like receptor 4 (TLR4) interacting proteins CD14 and MD-2; settings: cited from earlier work

Question: What does the source list for CCCCCCCC/C=C\CCCCCCCC(=O)O[C@H](COC(=O)CCCCCCCCCCCCCCC)COP(=O)(O)OCC(O)CO (mixture of isomers) [POPG, 1-Palmitoy-2-loleoyl-sn-glycerol-3-phospho-(1′-rac-glycerol)]?
Answer: VMD [1]: 59.05 ± 13.17 μm; X10 [1]: 1.80 ± 0.07 μm; X50 [1]: 12.65 ± 4.65 μm; Solubility ([2]; Acetone): <0.5 mg/mL; Solubility ([2]; Chloroform): 16.7 mg/mL (≈ 22300 µM); Solubility ([2]; Cycloexhane): <0.5 mg/mL; Solubility ([2]; DCM/ Methanol 5:1 v/v): ~70 mg/mL (≈ 93500 µM); Solubility ([2]; Dichloromethane (DCM)): <0.5 mg/mL; Solubility ([2]; Dimethyl sulfoxide (DMSO)): 0.5 mg/mL (≈ 668 µM); Solubility ([2]; Dimethylformamide (DMF)): <0.5 mg/mL; Solubility ([2]; Ethanol (96%)): 0.5 mg/mL (≈ 668 µM); Solubility ([2]; Ethyl Acetate): <0.5 mg/mL; Solubility ([2]; Heptane): <0.5 mg/mL; Solubility ([2]; Isopropanol (IPA)): <0.5 mg/mL; Solubility ([2]; Methanol): 1.35 mg/mL (≈ 1800 µM); Solubility ([2]; class III solvent): lower than 0.5 mg/mL; cytopathic effects induced by RSV [3]: significantly inhibited; interleukin-6 production [3]: significantly inhibited; interleukin-8 production [3]: significantly inhibited; inflammatory responses induced by lipopolysaccharide [4]: markedly attenuate
